According to US10071133B2, “Method for destroying exosomes, kit for destroying exosomes, and method for isolating exosomes derived from normal cells” (priority 2015, dated 2018):

Experiments:
[1] = system: exosomes derived from human breast cancer cells (MM231-luc-D3H2LN) in human peripheral blood sample; details: […]10^10 particles/mL exosomes, 100 μM magainin 2 or 8% phenol, 25° C., 24 hours
Protocol: The exosome fraction A prepared from the cell line MM231-luc-D3H2LN derived from human breast cancer cells was added to a peripheral blood sample collected from a healthy person with no cancer (hereinafter will be also referred to as human peripheral blood sample) so as to become an exosome concentration of an actual cancer patient, and thereby an artificial sample of a human peripheral blood of the cancer patient was produced. The human peripheral blood sample was obtained after procurement of the patient informed consent according to the Declaration of Helsinki, similarly to the method described in Japanese Unexamined patent publication No. 2013-198483, for example. Blood was drawn using a blood collection tube containing an anticoagulant.
Using a part of the incubated solution, the exosomes were purified with Exo-Flow32 CD9 IP Kit (manufactured by SBI), and then the number of exosomes in the solution was measured using the nanoparticle analyzer (NanoSight LM10; manufactured by NanoSight, Ltd.). […] In addition, a part of the incubated solution was subjected to the serum component protein electrophoresis.

[2] = system: exosome fraction B derived from human breast cancer cells (MDA-MB-231-luc-D3H2LN); experiment: Extraction of microRNA (miR-21) from exosomes derived from human breast cancer cells, real-time PCR; format: biochemical; details: 100 μM peptide, 1×10^11 particles/mL exosomes, 0.4 U/μL RNase inhibitor, 37° C., 24 hours; without peptide 8×10^−14M
Protocol: (§1) A cell suspension of cell line MDA-MB-231-luc-D3H2LN derived from human breast cancer (=MM231-luc-D3H2LN, provided by the National Cancer Center Research Institute) was seeded in a dish containing RPMI 1640 medium (manufactured by Thermo Fisher Scientific Inc.) containing 10% fetal bovine serum. Subsequently, the cell line was grown at 37° C. under the condition that CO2 concentration was set to 5 volume % using a CO2 incubator, and then the medium was replaced with Advanced RPMI 1640 medium (manufactured by Thermo Fisher Scientific Inc.), followed by culturing for 48 hours, and therefore the culture solution containing exosomes was obtained. This culture solution was centrifuged at 2,000 G for 10 minutes to remove the precipitate, followed by centrifugation at 110,000 G for 70 minutes to precipitate the exosomes, and therefore an exosome fraction B was recovered. The recovered exosome fraction B was suspended in a phosphate buffered saline (PBS) and then stored at 4° C. Storage samples were lightly suspended with a vortex mixer (vibration mixer) before use.
(§2) MicroRNA (miR-21 or miR-16) in the reaction solution was subjected to reverse transcription PCR using reverse transcription primers (manufactured by Thermo Fisher Scientific Inc., Taqman microRNA Assays, RT primers, and hsa-mir-21 or hsa-mir-16) and a reverse transcriptase (manufactured by Thermo Fisher Scientific Inc., Taqman microRNA RT kit).
(§3) The reverse transcription PCR solution obtained by the above described method was processed and by comparing the number of cycles on a calibration curve of microRNA using Taqman Assay primer (manufactured by Thermo Fisher Scientific Inc., Taqman microRNA Assays, Taqman Assay primer, and hsa-mir-21 or hsa-mir-16) and Real-Time PCR Master Mixes (manufactured by Thermo Fisher Scientific Inc., TaqMan Universal PCR Master Mix II, w/UNG) with StepOnePlus Real-Time PCR System, MiR-21 or miR-16 was quantified. The calibration curve of microRNA was created using synthetic miR-21 (manufactured by Sigma-Aldrich Co. LLC.) or synthetic miR-16 (manufactured by Sigma-Aldrich Co. LLC.).
(§4) 10 μL of the exosome fraction was prepared such that PBS contains 1×10^11 particles/mL of the exosome fraction B derived from human breast cancer cells, various antimicrobial peptides shown in the following Table 2 adjusted to 100 μM, and 0.4 U/μL of RNase inhibitor (manufactured by Toyobo Co., Ltd.), followed by incubation by being left to stand at 37° C. for 24 hours.
MicroRNA eluted into the solution was purified and recovered from the incubated solution of Example 10 above and Comparative Example 6 above by the following method.
First, 160 μL of PBS was added to the reaction solution, and then the solution was added to a centrifugal filter (manufactured by Millipore Corporation, Amicon Ultra 0.5 mL, 100K filter) and centrifuged at 14,000 G for 2 minutes. Subsequently, 100 μL of the centrifuged filtrate was recovered and introduced into a 1.5 mL tube. Next, 350 μL of RLT buffer (manufactured by QIAGEN, attached with RNeasy mini kit) and 675 μL of ethanol were added and mixed in the 1.5 mL tube. The obtained mixture was separated into two parts, and each of the separates was added onto a spin column (manufactured by QIAGEN, attached with RNeasy mini kit) followed by centrifugation at 8,000 G for 15 seconds, and the entire amount of the mixture was passed through the spin column. Thereafter, 500 μL of RPE buffer (manufactured by QIAGEN, attached with RNeasy mini kit) was added thereto and centrifuged at 8,000 G for 15 seconds. Furthermore, 500 μL of the RPE buffer was added to the spin column once more and centrifuged at 8,000 G for 15 seconds. Thereafter, the spin column was centrifuged at 14,000 G for 1 minute to remove the residual RPE buffer. Next, 30 μL of RNase free water (manufactured by QIAGEN, attached with RNeasy mini kit) was added to the spin column, left for 1 minute, and then centrifuged at 14,000 G for 1 minute, and the eluate obtained thereby was recovered. […]

[3] = system: exosomes derived from cancer cells; experiment: Preliminary examination of destructive ability of anticancer peptides against exosomes derived from cancer cells; format: biochemical
From the text: Specifically, the present inventors have come to realize the following knowledge.

[4] = system: exosome derived from human prostate cancer cells (PC3ML); experiment: Extraction of microRNA (miR-21) from exosome derived from prostate cancer cells, real-time PCR; format: biochemical; details: 100 μM peptide, 1×10^11 particles/mL PC3ML exosomes, 0.4 U/μL RNase inhibitor, 37° C., 24 hours; without peptide 3×10^−14M
Protocol: A cell suspension of cell line PC3ML derived from human prostate cancer cells (provided by the National Cancer Center Research Institute) was seeded in a dish containing RPMI 1640 medium (manufactured by Thermo Fisher Scientific Inc.) containing 10% fetal bovine serum. Subsequently, the cell line was grown at 37° C. under the condition that CO2 concentration was set to 5 volume % using a CO2 incubator, and then the medium was replaced with Advanced RPMI 1640 medium (manufactured by Thermo Fisher Scientific Inc.), followed by culturing for 48 hours, and the culture solution containing exosomes was obtained. This culture solution was centrifuged at 2,000 G for 10 minutes to remove the precipitate, followed by centrifugation at 110,000 G for 70 minutes to precipitate the exosomes, and therefore an exosome fraction was recovered. The recovered exosome fraction was suspended in a phosphate buffered saline (PBS) and then stored at 4° C. Storage samples were lightly suspended with a vortex mixer (vibration mixer) before use. […]
as §3, with “The calibration curve of microRNA was created using synthetic miR-21 (manufactured by Sigma-Aldrich Co. LLC.) or synthetic miR-16 (manufactured by Sigma-Aldrich Co. LLC.).” left out
The amount of microRNA (miR-21) contained in the recovered eluate was quantified by the above described real-time PCR method. […] In addition, the destructive activity of the antimicrobial peptide used was evaluated on the basis of the following criteria based on the quantitative result of the concentration of microRNA (miR-21) performed by the real-time PCR method. […]

[5] = system: exosome fraction A prepared from the cell line MM231-luc-D3H2LN derived from human breast cancer cells; experiment: Destruction of exosomes in PBS, number of exosomes by nanoparticle analyzer (NanoSight LM10); format: biochemical; details: 50 μM peptide, 1.36×10^10 particles/mL exosomes in PBS, 25° C., 48 hours
From the text: Storage samples were lightly suspended with a vortex mixer (vibration mixer) before use.

[6] = system: exosome fraction B derived from human breast cancer cells versus exosome fraction derived from human mammary gland cells (MCF-10A, normal cells); experiment: Selectivity: miR-16 ratio, breast cancer exosomes versus mammary gland normal cell exosomes (Formula 1); format: biochemical; details: for mir-16 ratio: Formula 1, cancer/normal (MCF-10A), 100 μM peptide, 37° C., 24 hours; for Selectivity: from miR-16 ratio versus Comparative Example 8, breast cancer vs MCF-10A exosomes
Protocol: as §1
A cell suspension of cell line MCF 10A derived from human mammary epithelial cells (provided by the National Cancer Center Research Institute) was seeded in a dish containing Mammary Epithelium Cell Basal Medium (manufactured by Lonza). Subsequently, the cell line was grown at 37° C. under the condition that CO2 concentration was set to 5 volume % using a CO2 incubator, and then the medium was replaced with a fresh medium, followed by culturing for 48 hours, and the culture solution containing exosomes was obtained. This culture solution was centrifuged at 2,000 G for 10 minutes to remove the precipitate, followed by centrifugation at 110,000 G for 70 minutes to precipitate the exosomes, and an exosome fraction was recovered. The recovered exosome fraction was suspended in a phosphate buffered saline (PBS) and then stored at 4° C. Storage samples were lightly suspended with a vortex mixer (vibration mixer) before use.
as §2, §3
as §4, with “Table 4” for “Table 2”
Thereafter, the eluted MicroRNA (miR-16) was purified and recovered from the incubated solution by the same method as the above described method for extraction from the incubated solution of Examples 10 and 11 above and Comparative Examples 6 and 7 above. […]

Oc1ccccc1 [Comparative Example 2, phenol, reference compound]
exosome amount compared to Comparative Example 3 (no additive) [1]: decreased

A6K: amino acid sequence AAAAAAK (Ac-AAAAAAK-NH2)
Destructive activity (concentration of microRNA miR-21 in eluate) [2]: D (the concentration of microRNA is less than 10×10^−14M) | destructive ability against the exosomes derived from cancer cells [3]: no or a low level

Hepcidin TH2-3
Destructive activity (concentration of microRNA miR-21 in eluate) [2]: D (the concentration of microRNA is less than 10×10^−14M) | destructive ability against the exosomes derived from cancer cells [3]: no or a low level

K6L9 (LKLLKKLLKKLLKLL)
Destructive activity (concentration of microRNA miR-21 in eluate) [4]: A (the concentration of microRNA is 10×10^−14M or more) | Destructive activity (concentration of microRNA miR-21 in eluate) [2]: B (the concentration of microRNA is 10×10^−14M to 50×10^−14M)

LL-37
number of exosomes in the solution [5]: 1.09×10^9 particles/mL | Destructive activity (concentration of microRNA miR-21 in eluate) [2]: A (the concentration of microRNA is 50×10^−14M or more) | mir-16 ratio [6]: 18 | Selectivity [6]: B (evaluated as “B” in a case where the calculated miR-16 value was higher than the miR-16 ratio of Comparative Example 8)

Lactoferricin [Example 4]
number of exosomes in the solution [5]: 7.47×10^9 particles/mL

Maximin 1
Destructive activity (concentration of microRNA miR-21 in eluate) [2]: B (the concentration of microRNA is 10×10^−14M to 50×10^−14M) | mir-16 ratio [6]: 22 | Selectivity [6]: B (evaluated as “B” in a case where the calculated miR-16 value was higher than the miR-16 ratio of Comparative Example 8)

Maximin 4
Destructive activity (concentration of microRNA miR-21 in eluate) [2]: B (the concentration of microRNA is 10×10^−14M to 50×10^−14M) | mir-16 ratio [6]: 311 | Selectivity [6]: B (evaluated as “B” in a case where the calculated miR-16 value was higher than the miR-16 ratio of Comparative Example 8)

Nisin [Example 3]
number of exosomes in the solution [5]: 4.51×10^9 particles/mL

PR-39 (RRRPRPPYLPRPRPPPFFPPRLPPRIPPGFPPRFPPRFP)
Destructive activity (concentration of microRNA miR-21 in eluate) [2]: D (the concentration of microRNA is less than 10×10^−14M) | destructive ability against the exosomes derived from cancer cells [3]: no or a low level

Polybia-MPI
Destructive activity (concentration of microRNA miR-21 in eluate) [4]: A (the concentration of microRNA is 10×10^−14M or more) | Destructive activity (concentration of microRNA miR-21 in eluate) [2]: B (the concentration of microRNA is 10×10^−14M to 50×10^−14M)

mCRAMP (GLLRKGGEKIGEKLKKIGQKIKNFFQKLVPQPEQ)
Destructive activity (concentration of microRNA miR-21 in eluate) [2]: A (the concentration of microRNA is 50×10^−14M or more) | mir-16 ratio [6]: 9 | Selectivity [6]: B (evaluated as “B” in a case where the calculated miR-16 value was higher than the miR-16 ratio of Comparative Example 8)
